From patent US12077503B2, “Substituted cyclic amides and their use as herbicides” (FMC CORPORATION, priority 2015, dated 2024)

How the values were obtained:
Format in all cases: in vivo
[1] = tested on: redroot pigweed (Amaranthus retroflexus); assay: Test G Post-Emergence Protocol; conditions: Amaranthus retroflexus, post-emergence, 312 h; for pest or weed control at 15.625 g/ha: 15.625 g ai/ha, evaluated after 13 days (100=total damage to plant; 0=no damage to plant), read-out: Pigweed, Redroot damage rating; for pest or weed control at 62.5 g/ha: 62.5 g ai/ha, read-out: Pigweed, Redroot damage rating (100=total damage to plant; 0=no damage to plant); for pest or weed control at 62.5 g/ha / pest or weed control at 250 g/ha: evaluated after 13 days; for pest or weed control at 250 g/ha: 250 g ai/ha, read-out: damage to plant, Pigweed, Redroot (100=total damage to plant; 0=no damage to plant)
In short: (§1)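 Pot-grown seedlings, 8 days old, raised in a glasshouse at 24/16 °C day/night with 14 h light and 65% humidity, were sprayed post-emergence with test compound in acetone/water (50:50) plus 0.5% Tween 20 at 15.625, 62.5 or 250 g/ha. Damage was scored visually 13 days later on a 0–100 scale (100 = total damage).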

[2] = tested on: barnyardgrass (Echinochloa crus-galli); assay: Test G Post-Emergence Protocol; conditions: Echinochloa crus-galli, post-emergence, 312 h; for pest or weed control at 15.625 g/ha: 15.625 g ai/ha, evaluated after 13 days (100=total damage to plant; 0=no damage to plant), read-out: Barnyardgrass damage rating; for pest or weed control at 62.5 g/ha: 62.5 g ai/ha, read-out: Barnyardgrass damage rating (100=total damage to plant; 0=no damage to plant); for pest or weed control at 62.5 g/ha / pest or weed control at 250 g/ha: evaluated after 13 days; for pest or weed control at 250 g/ha: 250 g ai/ha, read-out: damage to plant, Barnyardgrass (100=total damage to plant; 0=no damage to plant)
In short: as §1

[3] = tested on: ivy-leaved morning glory (Ipomoea hederacea); assay: Test G Post-Emergence Protocol; conditions: Ipomoea, post-emergence, 312 h; for pest or weed control at 15.625 g/ha: 15.625 g ai/ha, evaluated after 13 days (100=total damage to plant; 0=no damage to plant), read-out: Morningglory, Ivy-leaved damage rating; for pest or weed control at 62.5 g/ha: 62.5 g ai/ha, read-out: Morningglory, Ivy-leaved damage rating (100=total damage to plant; 0=no damage to plant); for pest or weed control at 62.5 g/ha / pest or weed control at 250 g/ha: evaluated after 13 days; for pest or weed control at 250 g/ha: 250 g ai/ha, read-out: damage to plant, Morningglory, Ivy-leaved (100=total damage to plant; 0=no damage to plant)
In short: as §1

corn (Zea mays) [4] = assay: Test G Post-Emergence Protocol; conditions: Zea mays, post-emergence, 312 h; for plant injury at 15.625 g/ha: 15.625 g ai/ha, evaluated after 13 days (100=total damage to plant; 0=no damage to plant), read-out: Corn damage rating; for plant injury at 62.5 g/ha: 62.5 g ai/ha, read-out: Corn damage rating (100=total damage to plant; 0=no damage to plant); for plant injury at 62.5 g/ha / plant injury at 250 g/ha: evaluated after 13 days; for plant injury at 250 g/ha: 250 g ai/ha, read-out: damage to plant, Corn (100=total damage to plant; 0=no damage to plant)
In short: as §1

[5] = tested on: velvetleaf (Abutilon theophrasti); assay: Test G Post-Emergence Protocol; conditions: Abutilon theophrasti, post-emergence, 312 h; for pest or weed control at 15.625 g/ha: 15.625 g ai/ha, evaluated after 13 days (100=total damage to plant; 0=no damage to plant), read-out: Velvetleaf damage rating; for pest or weed control at 62.5 g/ha: 62.5 g ai/ha, read-out: Velvetleaf damage rating (100=total damage to plant; 0=no damage to plant); for pest or weed control at 62.5 g/ha / pest or weed control at 250 g/ha: evaluated after 13 days; for pest or weed control at 250 g/ha: 250 g ai/ha, read-out: damage to plant, Velvetleaf (100=total damage to plant; 0=no damage to plant)
In short: as §1

[6] = tested on: giant foxtail (Setaria faberi); assay: Test G Post-Emergence Protocol; conditions: Setaria faberi, post-emergence, 312 h; for pest or weed control at 15.625 g/ha: 15.625 g ai/ha, evaluated after 13 days (100=total damage to plant; 0=no damage to plant), read-out: Foxtail, Giant damage rating; for pest or weed control at 62.5 g/ha: 62.5 g ai/ha, read-out: Foxtail, Giant damage rating (100=total damage to plant; 0=no damage to plant); for pest or weed control at 62.5 g/ha / pest or weed control at 250 g/ha: evaluated after 13 days; for pest or weed control at 250 g/ha: 250 g ai/ha, read-out: damage to plant, Foxtail, Giant (100=total damage to plant; 0=no damage to plant)
In short: as §1

[7] = tested on: redroot pigweed (Amaranthus retroflexus); assay: Test G Pre-Emergence Protocol; conditions: Amaranthus retroflexus, pre-emergence, 312 h, evaluated after 13 days; for pest or weed control at 15.625 g/ha: 15.625 g ai/ha; for pest or weed control at 15.625 g/ha / pest or weed control at 250 g/ha: read-out: Pigweed, Redroot damage rating (100=total damage to plant; 0=no damage to plant); for pest or weed control at 62.5 g/ha: 62.5 g ai/ha, 100=total damage to plant, 0=no damage to plant, read-out: plant damage rating, Pigweed, Redroot; for pest or weed control at 250 g/ha: 250 g ai/ha
In short: (§2)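 One day after sowing, pots are treated with a spray of test compound formulated in acetone/water 50:50 plus 0.5% Tween 20, giving 15.625, 62.5 or 250 g/ha. Evaluation on a 0–100 damage scale follows 13 days of glasshouse growth.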

[8] = tested on: barnyardgrass (Echinochloa crus-galli); assay: Test G Pre-Emergence Protocol; conditions: Echinochloa crus-galli, pre-emergence, 312 h, evaluated after 13 days; for pest or weed control at 15.625 g/ha: 15.625 g ai/ha, read-out: Barnyard grass damage rating (100=total damage to plant; 0=no damage to plant); for pest or weed control at 62.5 g/ha: 62.5 g ai/ha, 100=total damage to plant, 0=no damage to plant, read-out: plant damage rating, Barnyardgrass; for pest or weed control at 250 g/ha: 250 g ai/ha, read-out: Barnyardgrass damage rating (100=total damage to plant; 0=no damage to plant)
In short: as §2

[9] = tested on: ivy-leaved morning glory (Ipomoea hederacea); assay: Test G Pre-Emergence Protocol; conditions: Ipomoea, pre-emergence, 312 h, evaluated after 13 days; for pest or weed control at 15.625 g/ha: 15.625 g ai/ha, read-out: Morning-glory, Ivy-leaved damage rating (100=total damage to plant; 0=no damage to plant); for pest or weed control at 62.5 g/ha: 62.5 g ai/ha, 100=total damage to plant, 0=no damage to plant, read-out: plant damage rating, Morningglory, Ivy-leaved; for pest or weed control at 250 g/ha: 250 g ai/ha, read-out: Morningglory, Ivy-leaved damage rating (100=total damage to plant; 0=no damage to plant)
In short: as §2

corn (Zea mays) [10] = assay: Test G Pre-Emergence Protocol; conditions: Zea mays, pre-emergence, 312 h, evaluated after 13 days; for plant injury at 15.625 g/ha: 15.625 g ai/ha; for plant injury at 15.625 g/ha / plant injury at 250 g/ha: read-out: Corn damage rating (100=total damage to plant; 0=no damage to plant); for plant injury at 62.5 g/ha: 62.5 g ai/ha, 100=total damage to plant, 0=no damage to plant, read-out: plant damage rating, Corn; for plant injury at 250 g/ha: 250 g ai/ha
In short: as §2

[11] = tested on: velvetleaf (Abutilon theophrasti); assay: Test G Pre-Emergence Protocol; conditions: Abutilon theophrasti, pre-emergence, 312 h, evaluated after 13 days; for pest or weed control at 15.625 g/ha: 15.625 g ai/ha; for pest or weed control at 15.625 g/ha / pest or weed control at 250 g/ha: read-out: Velvetleaf damage rating (100=total damage to plant; 0=no damage to plant); for pest or weed control at 62.5 g/ha: 62.5 g ai/ha, 100=total damage to plant, 0=no damage to plant, read-out: plant damage rating, Velvetleaf; for pest or weed control at 250 g/ha: 250 g ai/ha
In short: as §2

[12] = tested on: giant foxtail (Setaria faberi); assay: Test G Pre-Emergence Protocol; conditions: Setaria faberi, pre-emergence, 312 h, evaluated after 13 days; for pest or weed control at 15.625 g/ha: 15.625 g ai/ha; for pest or weed control at 15.625 g/ha / pest or weed control at 250 g/ha: read-out: Foxtail, Giant damage rating (100=total damage to plant; 0=no damage to plant); for pest or weed control at 62.5 g/ha: 62.5 g ai/ha, 100=total damage to plant, 0=no damage to plant, read-out: plant damage rating, Foxtail, Giant; for pest or weed control at 250 g/ha: 250 g ai/ha
In short: as §2

Structure (SMILES) | pest or weed control at 15.625 g/ha [1] [%] | pest or weed control at 62.5 g/ha [1] [%] | pest or weed control at 250 g/ha [1] [%] | pest or weed control at 15.625 g/ha [2] [%] | pest or weed control at 62.5 g/ha [2] [%] | pest or weed control at 250 g/ha [2] [%] | pest or weed control at 15.625 g/ha [3] [%] | pest or weed control at 62.5 g/ha [3] [%] | pest or weed control at 250 g/ha [3] [%] | plant injury at 15.625 g/ha (corn (Zea mays) [4]) [%] | plant injury at 62.5 g/ha (corn (Zea mays) [4]) [%] | plant injury at 250 g/ha (corn (Zea mays) [4]) [%] | pest or weed control at 15.625 g/ha [5] [%] | pest or weed control at 62.5 g/ha [5] [%] | pest or weed control at 250 g/ha [5] [%] | pest or weed control at 15.625 g/ha [6] [%] | pest or weed control at 62.5 g/ha [6] [%] | pest or weed control at 250 g/ha [6] [%] | pest or weed control at 15.625 g/ha [7] [%] | pest or weed control at 62.5 g/ha [7] [%] | further results
CN1C[C@@H](c2ccc(C(F)(F)F)cc2)[C@H](C(=O)Nc2ccc(F)cc2C(F)(F)F)C1=O (racemic) [Compound 1616] | 20 | 50 | 60 | 10 | 10 | 60 | 0 | 10 | 20 | 0 | 0 | 0 | 10 | 0 | 30 | 40 | 20 | 80 | 0 | 20 | pest or weed control at 250 g/ha [7]: 60%; pest or weed control at 15.625 g/ha [8]: 0%; pest or weed control at 62.5 g/ha [8]: 0%; pest or weed control at 250 g/ha [8]: 60%; pest or weed control at 15.625 g/ha [9]: 0%; pest or weed control at 62.5 g/ha [9]: 0%; pest or weed control at 250 g/ha [9]: 20%; plant injury at 15.625 g/ha (corn (Zea mays) [10]): 0%; plant injury at 62.5 g/ha (corn (Zea mays) [10]): 0%; plant injury at 250 g/ha (corn (Zea mays) [10]): 0%; pest or weed control at 15.625 g/ha [11]: 0%; pest or weed control at 62.5 g/ha [11]: 0%; pest or weed control at 250 g/ha [11]: 50%; pest or weed control at 15.625 g/ha [12]: 0%; pest or weed control at 62.5 g/ha [12]: 80%; pest or weed control at 250 g/ha [12]: 90%
CN1C[C@H](c2ccc(C(F)(F)F)cc2)[C@@H](C(=O)Nc2ccc(F)c(Cl)c2)C1=O (racemic) [Compound 1434] | 0 | 0 | 20 | 0 | 0 | 20 | 0 | 0 | 0 | 10 | 0 | 10 | 0 | 0 | 10 | 0 | 0 | 30 | 0 | 0 | pest or weed control at 250 g/ha [7]: 0%; pest or weed control at 15.625 g/ha [8]: 0%; pest or weed control at 62.5 g/ha [8]: 0%; pest or weed control at 250 g/ha [8]: 20%; pest or weed control at 15.625 g/ha [9]: 0%; pest or weed control at 62.5 g/ha [9]: 0%; pest or weed control at 250 g/ha [9]: 0%; plant injury at 15.625 g/ha (corn (Zea mays) [10]): 0%; plant injury at 62.5 g/ha (corn (Zea mays) [10]): 0%; plant injury at 250 g/ha (corn (Zea mays) [10]): 0%; pest or weed control at 15.625 g/ha [11]: 0%; pest or weed control at 62.5 g/ha [11]: 0%; pest or weed control at 250 g/ha [11]: 0%; pest or weed control at 15.625 g/ha [12]: 0%; pest or weed control at 62.5 g/ha [12]: 20%; pest or weed control at 250 g/ha [12]: 50%
